Laboratory results reported in US5331094A, “Purified active somatostatin receptor” (American Cyanamid Company, priority 1992, dated 1994).
pKd: −log10 of the molar value. Bridge positions count the residues as written; N and C are the ends. Square brackets hold non-standard residues; d marks the D form. Peptide text beside a SMILES is read from it. * marks the point of attachment. Biotin = O=C1N[C@H]2[C@H](CS[C@H]2CCCCC(=O)*)N1; Tyr(3-I) = N[C@@H](Cc1ccc(O)c(I)c1)C(=O)O; Ahx = NCCCCCC(=O)O

How the values were obtained:
Immobilized Streptavidin [1] = target: T1, Immobilized Streptavidin (Streptomyces avidinii, UniProt P22629); experiment: Binding of [125I]-labelled biotinyl-SRIFs (solubilized R:L complex) to immobilized streptavidin; conditions: for Initial CPM: 100 ul of initial 100,000 x g supernatant containing soluble R:L complex; for CPM (non-bound), 1 hour: 100 ul supernatant after 1 hour incubation with SA-agarose; for CPM (non-bound), 1 hour / CPM (non-bound), 3 hours: 4-10 C; for CPM (non-bound), 3 hours: 100 ul supernatant after 3 hours incubation with SA-agarose; for % Binding of Radioligand to SA-Agarose, 1 hour, % Bound: 1 hour incubation with SA-agarose; for % Binding of Radioligand to SA-Agarose, 3 hours, % Bound: 3 hours incubation with SA-agarose
T1 construct: purchased Pierce Chemical Co
Method: (§1) To compare the three biotinyl-SRIF analogs in terms of binding to streptavidin, the following experiment is done. [^125 I]Bio-SRIF analogs are bound to GH4 C1 membranes as described ("Methods: Receptor Binding Methods, 3"). All radioligands are at a concentration of […] cpm/ml. For each radioligand, a control for non-specific binding was done in the presence of 1 uM cold S14. CPM bound/mg membrane protein after the binding step are as follows: [^125 I]Bio-6C-S14=755,020 (total) and 43,361 (non-specific); [^125 I]Bio-12C=S14=633,134 (total) and 39,538 (nonspecific); [^125 I]Bio-S28=1,065,512 (total) and 35,049 (nonspecific). The membrane pellets are solubilized in solubilization buffer containing 0.15% deoxycholate:lysolecithin and 0.2 mM MgCl2 as described ("Methods: Membrane Solubilization"). […] One ml samples of solubilized membranes are incubated with 0.05 ml vols of streptavidin-agarose at 4°-10° C. on a tube rotator for the times shown. Non-specific binding samples are not done due to the low levels of non-specific binding. At the times shown, the […] beads are spun down and 100 ul samples of supernatant are counted. The cpm are compared to initial cpm in the sample and % binding to SA is calculated from this. Also, it should be noted that binding of cpm from the supernatant is considered to parallel the binding of R:L complex. Several observations confirm that this is a valid assumption.

SRIF receptor [2] = experiment: Scatchard analysis of binding of [125I]-labelled SRIF analogs to GH4 C1 membranes; design: species or system rat; conditions: GH4 C1 membranes (FIG. 2), read-out: dissociation constant (KD)
Method: 1. Standard Binding Assays--Binding assays are done in a binding buffer containing 50 mM HEPES (pH 7.4), 0.5% BSA and 5 mM MgCl2. The standard assay for [^125 I]SRIF analog binding to GH4 C1 membranes, done in 96 well microtiter plates (Dynataech Immulon II Removawell plates), is carried out as follows: 1. Radioligand is diluted in binding buffer+ PMSF/Baci to the desired cpm per vol. of 50 μl and then 50 μl aliquots are added to the wells. For non-specific binding samples, 5 μl of 40 μM cold S14 is also added per well. 2. Binding is initiated by adding 150 μl per well of membrane diluted to the desired concentration (10-30 ug membrane protein/well) in binding buffer+ PMSF/Baci. Plates are then covered with Linbro mylar plate sealers (Flow Labs) and placed on a Dynatech Microshaker II and binding is allowed to proceed at room temperature for 1-2 hours. Binding is stopped by centrifuging the plate for 15 minutes at 2,000×g. The supernatants are dumped off and membrane pellets washed once by addition of 200 μl of ice cold binding buffer, brief shaking and recentrifugation. Finally the individual wells are placed in 12×75 mm tubes and counted in an LKB Gammamaster counter (78% efficiency). Specific binding by this method is identical to that measured when free ligand is removed by rapid (3-5 seconds) filtration and washing on polyethyleneimine-coated glass fiber filters.
Because Bio-C6-S14, Bio-C12-S14 and Bio-S28 all contain tyrosine residues, it is possible to prepare their [^125 I] labelled analogs and carry out Scatchard analyses of their binding affinities relative to [^125 I]Tyr11-S14 (FIG. 2). As shown in the figure, the [^125 I]-labelled peptides fall in the same order of potency as their non-labelled forms. The dissociation constants (KDs) and relative binding affinities are [^125 I]Tyr11-S14 (0.1 nM)>[^125 I]Bio-S28 (0.2 nM)>[^125I]Bio-6C-S14 (0.3 nM)>[^125 I]Bio-12C-S14 (0.4 nM).

SRIF receptor [3] = experiment: Binding of [125I]Bio-SRIF analogs to GH4 C1 membranes (CPM bound); design: species or system rat; conditions: for CPM bound/mg membrane protein (total): after the binding step; for CPM bound/mg membrane protein (non-specific): in the presence of 1 uM cold S14
Method: 3. Chemical cross-linking of radioligand with receptor is done after a binding step identical to the standard assay. However, the wash step is done with binding buffer minus BSA to reduce the possibility of non-specific cross-linking of radioligand with BSA. The cross-linking step is carried out as described below.
as §1

SRIF receptor [4] = experiment: Tracing of SRIF R:L complex with [125I]Bio-S28: membrane binding and deoxycholate:lysolecithin solubilization; design: species or system rat
Method: 1. Binding of biotinyl-SRIF to GH4 C1 membranes. The binding step is carried out as described in Section 4 of "Receptor Binding Methods". Incubations are for 1 hour at room temperature. In the standard purification protocol, the binding incubations contain 10 nM Bio-S29/ [^125 I]Bio-S28 is added as a tracer at levels of 5,000-100,000 cpm per mg of membrane protein. Control incubations contain 10 uM cold S14 to saturate the receptor with non-biotinylated ligand.
2. Solubilization of receptor:ligand complex. This is done as described ("Membrane Solubilization"), with 0.15% deoxycholate:lysolecithin in solubilization buffer containing 0.2 mM MgCl2, to obtain 100,000×g supernatants containing solubilized R:L complex.
(§2) A preparation of SRIF receptor is purified from 17 mg GH4 C1 pituitary cell membranes as described in "Methods: Receptor Purification". Some important features of this experiment are as follows: Two 17 mg samples of membranes are used. Both are incubated with 10^-8 M Bio-S28. However, one sample also receives 10^-5 M non-biotinyl S14 for 2-3 minutes before addition of any Bio-S28. This serves to block binding of Bio-S28 and creates a control to show non-specific binding of proteins to the streptavidin column. Also, each sample receives 1.5×10^8 cpm of [^125 I]Bio-S28 as a tracer. This is added 2-3 minutes before the addition of cold Bio-S28. After a 1-hour binding step, the membranes are washed in binding buffer without BSA and solubilized in solubilization buffer containing 0.15% deoxycholate:lysolecithin and 0.2 mM MgCl2. Each 100,000×g supernatant (17 ml) is incubated with 0.6 ml of streptavidin-agarose for 4 hours at 4°-10° C. The SA-agarose is transferred to a 0.7 cm diameter column, washed and eluted with EDTA/EGTA/GTP-gamma-S as described ("Methods: Receptor Purification").
(§3) Radioligand is followed through the procedure to estimate solubilization of R:L complex and % initial binding of R:L complex to immobilized streptavidin.

Immobilized Streptavidin [5] = target: T1, Immobilized Streptavidin; experiment: Tracing of SRIF R:L complex with [125I]Bio-S28: adsorption to streptavidin-agarose during purification; format: binding
Method: 3. Adsorption of solubilized R:L complex to streptavidin. Immobilized streptavidin (streptavidin cross-linked to 6% beaded agarose, Pierce Chemical Co.; "SA-agarose") is washed in solubilization buffer and added to the solubilized membranes as 1/30 of the final volume. This mixture is incubated with constant stirring by end-over-end rotation for 4-5 hours at 4°-10° C. Then the mixture is applied to a column and the non-bound material is washed through. Binding of radioligand to SA-agarose is determined by comparing cpm in the 100,000×g supernatant with that in the column effluent after adsorption to SA-agarose. Finally, the column is washed with 12-15 column volumes of solubilization buffer+0.15% deoxycholate:lysolecithin +1/500 (vol/vol) 100×4pase.
as §2, §3
As discussed above, this should approximate the binding of R:L complex to streptavidin.

SRIF receptor [6] = conditions: pituitary cells; Kirk et al. 1984; cited from earlier work
[7] = 10^-8 M Bio-S28 + 10^-5 M S14 (NSB)

T1 sequence (P22629 25-183): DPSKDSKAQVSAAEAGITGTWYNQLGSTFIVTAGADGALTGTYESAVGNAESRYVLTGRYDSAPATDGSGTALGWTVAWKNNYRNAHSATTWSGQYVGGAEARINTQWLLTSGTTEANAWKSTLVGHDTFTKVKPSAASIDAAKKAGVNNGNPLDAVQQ

Molecule	Initial CPM (Immobilized Streptavidin [1])	CPM (non-bound), 1 hour (Immobilized Streptavidin [1])	CPM (non-bound), 3 hours (Immobilized Streptavidin [1])	% Binding of Radioligand to SA-Agarose, 1 hour, % Bound (Immobilized Streptavidin [1])	% Binding of Radioligand to SA-Agarose, 3 hours, % Bound (Immobilized Streptavidin [1])	pKd (SRIF receptor [2])	CPM bound/mg membrane protein (total) (SRIF receptor [3])	CPM bound/mg membrane protein (non-specific) (SRIF receptor [3])	CPM Solubilized by Deoxycholate:Lysolecithin (%) (SRIF receptor [4]; 10^-8 M Bio-S28)	CPM Initially Bound to Membranes (SRIF receptor [4]; [7])	CPM Solubilized by Deoxycholate:Lysolecithin (%) (SRIF receptor [4]; [7])	CPM Initially Bound to Membranes (SRIF receptor [4]; ligand in binding step 10^-8 M Bio-S28)	Solubilized CPM Non-Bound to Streptavidin (%) (Immobilized Streptavidin [5]; 10^-8 M Bio-S28)	Solubilized CPM Non-Bound to Streptavidin (%) (Immobilized Streptavidin [5]; [7])	specifically bound radioligand bound to streptavidin (Immobilized Streptavidin [5]; calculation from Table 2)	decrease of binding of [125I]Tyr1-SRIF (SRIF receptor [6])
C[C@H](NC(=O)CCCCCNC(=O)CCCC[C@@H]1SC[C@@H]2NC(=O)N[C@@H]21)C(=O)NCC(=O)N[C@H]1CSSC[C@@H](C(=O)O)NC(=O)[C@H](CO)NC(=O)[C@H]([C@@H](C)O)NC(=O)[C@H](Cc2ccc(O)c(I)c2)NC(=O)[C@H]([C@@H](C)O)NC(=O)[C@H](CCCCN)NC(=O)[C@H](Cc2c[nH]c3ccccc23)NC(=O)[C@H](Cc2ccccc2)NC(=O)[C@H](Cc2ccccc2)NC(=O)[C@H](CC(N)=O)NC(=O)[C@H](CCCCN)NC1=O [[^125 I]Bio-6C-S14] ({Biotin-Ahx}-AGCKNFFWKT[Tyr(3-I)]TSC-OH; disulfide 3-14)	63,490 CPM	28,381 CPM	16,228 CPM	55%	74%	9.52	755,020 CPM bound/mg membrane protein	43,361 CPM bound/mg membrane protein								
C[C@H](NC(=O)CCCCCNC(=O)CCCCCNC(=O)CCCC[C@@H]1SC[C@@H]2NC(=O)N[C@@H]21)C(=O)NCC(=O)N[C@H]1CSSC[C@@H](C(=O)O)NC(=O)[C@H](CO)NC(=O)[C@H]([C@@H](C)O)NC(=O)[C@H](Cc2ccc(O)c(I)c2)NC(=O)[C@H]([C@@H](C)O)NC(=O)[C@H](CCCCN)NC(=O)[C@H](Cc2c[nH]c3ccccc23)NC(=O)[C@H](Cc2ccccc2)NC(=O)[C@H](Cc2ccccc2)NC(=O)[C@H](CC(N)=O)NC(=O)[C@H](CCCCN)NC1=O [[^125 I]Bio-12C-S14] ({Biotin-Ahx-Ahx}-AGCKNFFWKT[Tyr(3-I)]TSC-OH; disulfide 3-14 (inferred); C-terminus assumed)	54,344 CPM	23,391 CPM	13,071 CPM	57%	76%	9.40	633,134 CPM bound/mg membrane protein	39,538 CPM bound/mg membrane protein								
CC(C)C[C@H](NC(=O)[C@H](C)NC(=O)[C@@H]1CCCN1C(=O)[C@H](CC(N)=O)NC(=O)[C@H](CO)NC(=O)[C@H](CC(N)=O)NC(=O)[C@H](C)NC(=O)[C@H](CO)NC(=O)CCCC[C@@H]1SC[C@@H]2NC(=O)N[C@@H]21)C(=O)N[C@@H](C)C(=O)N1CCC[C@H]1C(=O)N[C@@H](CCCNC(=N)N)C(=O)N[C@@H](CCC(=O)O)C(=O)N[C@@H](CCCNC(=N)N)C(=O)N[C@@H](CCCCN)C(=O)N[C@@H](C)C(=O)NCC(=O)N[C@H]1CSSC[C@@H](C(=O)O)NC(=O)[C@H](CO)NC(=O)[C@H]([C@@H](C)O)NC(=O)[C@H](Cc2ccc(O)c(I)c2)NC(=O)[C@H]([C@@H](C)O)NC(=O)[C@H](CCCCN)NC(=O)[C@@H](Cc2c[nH]c3ccccc23)NC(=O)[C@H](Cc2ccccc2)NC(=O)[C@H](Cc2ccccc2)NC(=O)[C@H](CC(N)=O)NC(=O)[C@H](CCCCN)NC1=O [[^125 I]Bio-S28] (Biotin-SANSNPALAPRERKAGCKNFF[dW]KT[Tyr(3-I)]TSC-OH; disulfide 17-28)	92,534 CPM	31,645 CPM	17,098 CPM	66%	82%	9.70	1,065,512 CPM bound/mg membrane protein	35,049 CPM bound/mg membrane protein	91%	9,316 CPM	73%	59,132 CPM	28%	15%	72%	
pertussis toxin																more than 95%
